Laboratory results: US20230104503A1, “SMALL MOLECULE COMPOUNDS” (THE REGENTS OF THE UNIVERSITY OF CALIFORNIA, priority 2021, published 2023)

Legend:
[1] = tested on: naïve CD4+ mouse T cells; assay: FACS of stimulated naïve CD4+ mouse T-cells for CD4+CD25+FOXP3+; conditions: 1 uM
[2] = humans; cited from earlier work
[3] = tested on: mTOR; assay: Phospho-flow (FACS) of phospho-p70S6K / p-S6 in activated mouse T-cells; type: cell-based
Method: Whole splenocyte from OT1 B6 mice was extracted. […] Cells were activated with compounds for 30 mins, 1 hour, 2 hours, and overnight. For each time point, p-S6, a downstream of mTORC1 pathway, was gated on low and high based on the DMSO and no stimulation control.

[4] = tested on: CD8 cells isolated from p14 transgenic mice; assay: CD8 CTV-labelled proliferation assay; type: cell-based, mouse; conditions: activated for 72 hours; relative to RAP35 and rapamycin
Method: The five analogs and rapamycin were assayed for their effect on proliferation and correlation to p70S6K inhibitory activity. […] The proliferation was measured by FACS. The five analogs were tested at varying concentrations (10 nM, 100 nM, and 100 μM), activated for 72 hours with rapamycin and DMSO treated controls.
CD8 cells were isolated from p14 transgenic mice, then labelled with CTV. The labelled cells then were activated with plate-bound anti-CD3 (5 μg/mL) and soluble anti-CD28 (2 μg/mL), along with rapamycin, rapamycin analog, or DMSO. After activation of 48 hours and 72 hours, the cells were collected to assay the CVT labelling signal using flow cytometry. All rapamycin analogs decrease proliferation in CD8 cells, with varying potency (FIG. 12).

[5] = tested on: naïve CD4+ mouse T-cells; assay: FACS for expansion of CD62L+ memory T-cells; type: cell-based
Method: RAP23 was further evaluated by treating naïve CD4+ T-cells at multiple concentrations (1 nM to 1 uM) for expansion of CD62L+ memory T-cells. […] These 5 compounds were identified to have reduced immunosuppression (with improved safety) with maximum and durable expansion of memory T-cells.

[6] = tested on: conventional T cells; assay: Treg assays for RAP35: culture of conventional T cells; type: cell-based
[7] = tested on: Treg cells; assay: Treg assays for RAP35: Treg cells with expander beads; type: cell-based; conditions: 100 nM
[8] = Stability during semi-preparative HPLC; type: physicochemical; conditions: 65% acetonitrile with 35% water, 50° C.
Method: The crude was then dissolved in acetonitrile, and the resulting solution was subjected to semi-preparation using an Agilent Zorbax column (SB-C18, 5 μm, 9.4×250 mm, Agilent Technologies Inc., CA) heated to 50° C. by isocratic elution of 65% acetonitrile with 35% water at a flow rate of 3.5 mL/min. The absorbance at 278 nm wavelength was monitored.

CO[C@H]1C[C@@H]2CC[C@@H](C)[C@@](O)(O2)C(=O)C(=O)N2CCCC[C@H]2C(=O)O[C@H]([C@H](C)C[C@@H]2CC[C@@H](O)[C@H](OC)C2)CC(=O)[C@H](C)/C=C(\C)[C@@H](O)[C@@H](OC)C(=O)[C@H](C)C[C@H](C)/C=C/C=C/C=C/1C [rapamycin, reference compound]
FOXP3+ count [1]: 53.3 | terminal half-life [2]: 24 to 48 h

CO[C@H]1C[C@@H]2CC[C@@H](C)[C@@](O)(O2)C(=O)C(=O)N2CCCC[C@H]2C(=O)O[C@H]([C@H](C)C[C@@H]2CC[C@@H](O)[C@H](OC)C2)CC(=O)[C@H](C)/C=C(\C)[C@@H](O)[C@@H](OC)C(=O)[C@H](C)CC/C=C/C=C/C=C/1C [RAP23, (3S,6R,7E,9R,10R,12R,15E,17E,19E,21S,23S,26R,27R,34aS)-9,27-dihydroxy-3-((R)-1-((1S,3R,4R)-4-hydroxy-3-methoxycyclohexyl)propan-2-yl)-10,21-dimethoxy-6,8,12,20,26-pentamethyl-9,10,12,13,14,21,22,23,24,25,26,27,32,33,34,34a-hexadecahydro-3H-23,27-epoxypyrido[2,1-c][1]oxa[4]azacyclohentriacontine-1,5,11,28,29(4H,6H,31H)-pentaone]
inhibition of the p70S6 high signal ([3]; even at 1 uM): never fully inhibited | proliferation of CTV-labelled CD8 cells [4]: increased proliferation | portion of cells possessing a phospho-p70S6K high/CD62L+high phenotype ([5]; 1 nM to 1 uM): 7-10% | generation of memory versus inhibition of proliferation ([5]; overall assessment): promote potent generation of memory without potently inhibiting proliferation | phospho-p70S6K low/CD62L+high phenotype ([5]; relative to all doses of rapamycin (including 1 nM)): reduced

CO[C@H]1C[C@@H]2CC[C@@H](C)[C@@](O)(O2)C(=O)C(=O)N2CCCC[C@H]2C(=O)O[C@H](CC[C@@H]2CC[C@@H](O)[C@H](OC)C2)CC(=O)[C@H](C)/C=C(\C)[C@@H](O)[C@@H](OC)C(=O)[C@H](C)C[C@H](C)/C=C/C=C/C=C/1C [RAP35, (3R,6R,7E,9R,10R,12R,14S,15E,17E,19E,21S,23S,26R,27R,34aS)-9,27-dihydroxy-3-(2-((1S,3R,4R)-4-hydroxy-3-methoxycyclohexyl)ethyl)-10,21-dimethoxy-6,8,12,14,20,26-hexamethyl-9,10,12,13,14,21,22,23,24,25,26,27,32,33,34,34a-hexadecahydro-3H-23,27-epoxypyrido[2,1-c][1]oxa[4]azacyclohentriacontine-1,5,11,28,29(4H,6H,31H)-pentaone]
anti-inflammatory effects (Cell Proliferation Dye and phenotypic markers) ([6]; 100 nM): promising anti-inflammatory effects | CCR7 expression ([6]; 100 nM, conventional T cells): increased | CD45RO expression ([6]; 100 nM, conventional T cells): decreased | mitochondrial membrane potential (MitoProbe) ([6]; compared to stimulated CD3 T cells): reduced | p70S6 high cells ([3]; following overnight stimulation, therapeutic concentrations (1-200 nM)): significantly reduced | FOXP3+ count [1]: 45.8 | frequency of Treg cells [7]: reduce | expression of CCR7 ([7]; Treg cells): reduce | expression of CD45RO ([7]; Treg cells): reduce | expression of CXCR3 ([7]; Treg cells): reduce | phosphorylation of 4EBP1 ([7]; Treg cells): reduce | phosphorylation of S6 ([7]; Treg cells): reduce

CO[C@H]1C[C@@H]2CC[C@@H](C)[C@@](O)(O2)C(=O)C(=O)N2CCCC[C@H]2C(=O)O[C@H](CC[C@@H]2CC[C@@H](O)[C@H](OC)C2)CC(=O)[C@H](C)/C=C(\C)[C@@H](O)CC(=O)[C@H](C)C[C@H](C)/C=C/C=C/C=C/1C [RAP35/27A, (3R,6R,7E,9S,12R,14S,15E,17E,19E,21S,23S,26R,27R,34aS)-9,27-dihydroxy-3-(2-((1S,3R,4R)-4-hydroxy-3-methoxycyclohexyl)ethyl)-21-methoxy-6,8,12,14,20,26-hexamethyl-9,10,12,13,14,21,22,23,24,25,26,27,32,33,34,34a-hexadecahydro-3H-23,27-epoxypyrido[2,1-c][1]oxa[4]azacyclohentriacontine-1,5,11,28,29(4H,6H,31H)-pentaone]
stability in the process of semi-preparation [8]: tended to be unstable
